For assay [1], the target named is T1, AchE from Electrophorus electricus (electric eel) (Electrophorus electricus, UniProt O42275).
T1 construct: purchased Sigma Aldrich
As to the kind of experiment: In-vitro AChE inhibition assay, Ellman method. The class given is biochemical. The source says: AchE from Electrophorus electricus (electric eel) CAS: 9000-81-1 was procured from Sigma Aldrich (St. Louis, Mo., USA). 5,5′-dithiobis (2-nitrobenzoic acid) (DTNB-Ellman's reagent) and acetylcholine iodide, (AChI) were procured from local suppliers (HiMedia, Pvt. Ltd., New Delhi, India). All other chemicals and reagents were available commercially from local suppliers (Merck Pvt. Ltd., New Delhi and HiMedia Laboratories Pvt Ltd., New Delhi, India) and were of analytical grade.
The procedure described by Ellman et al. was used after some modification for AChE inhibition assay. Acetylthiocholine iodide (ATCI), 5,5′-dithiobis (2-nitrobenzoic acid) (DTNB-Ellman's reagent) were purchased from Himedia. Donepezil was used as positive control. Tris-HCl buffer (pH 8) was used to perform the in-vitro assay. […] 50 μL of AChE (0.22 U mL^−1) and 10 μL of test or standard compounds were incubated in 96 well plate for 30 min. at room temperature (See, Table 3).
Further, substrate i.e. ATCI (15 mM, 30 μL) was added and it was incubated for additional 30 min. Finally 160 μL (1.5 mM) of DTNB was added and the absorbance was recorded at 415 nm using Epoch microplate reader (BioTek). The IC50 value was calculated using absorbance obtained from the test and standard compounds. The assay was performed in triplicate and in three independent runs.
Percentage inhibition=(Control−Test)/Control×100 Equation (1)
50 μL of AChE (0.22 U mL^−1) and 10 μL of test or standard compounds were incubated in 96 well plate for 30 min. at room temperature.
Further, substrate i.e. ATCI (15 mM, 30 μL) was added and it was incubated for additional 30 min. Finally 160 μL (1.5 mM) of DTNB was added and the absorbance was recorded at 415 nm using Epoch microplate reader (BioTek). The IC50 value was calculated using absorbance obtained from the test and standard compounds. The assay was performed in triplicate (see Equation 1).
(In general: DTNB colorimetry detects thiols as they appear.)

Assay [2] concerns the target T2, Human recombinant AChE (Homo sapiens, UniProt P22303).
T2 construct: purchased Sigma Aldrich
The experiment in a line: In-vitro human recombinant AChE inhibition assay, Ellman method. Type of assay: biochemical. The following applies: Table 10. The source says: In-vitro human recombinant AChE inhibition assay: Procedure described by Ellman et al. was used after some modification for AChE inhibition assay. Human recombinant AChE was purchased from Sigma Aldrich (St. Louis, Mo.). Acetylthiocholine iodide (ATCI), 5,5′-dithiobis (2-nitrobenzoic acid) (DTNB-Ellman's reagent) were purchased from Himedia Pvt. Ltd. (New Delhi, India). Donepezil was used as positive control groups. Tris-HCl buffer (pH 8) was used to perform the in-vitro assay.
Further, substrate i.e. ATCI (15 mM, 30 μL) was added and it was incubated for additional 30 min. Finally 160 μL (1.5 mM) of DTNB was added and the absorbance was recorded at 415 nm using Epoch microplate reader (BioTek). The IC50 value was calculated using absorbance obtained from the test and standard compounds. The assay was performed in triplicate and in three independent runs (see Equation 1).

Where [3] appears, read: Table 2, B:A ratios from mg/ml solutions.
Where [4] appears, read: Table 5, Shilajit:B:A combinations from mg/ml solutions.

T1 sequence (O42275 24-633): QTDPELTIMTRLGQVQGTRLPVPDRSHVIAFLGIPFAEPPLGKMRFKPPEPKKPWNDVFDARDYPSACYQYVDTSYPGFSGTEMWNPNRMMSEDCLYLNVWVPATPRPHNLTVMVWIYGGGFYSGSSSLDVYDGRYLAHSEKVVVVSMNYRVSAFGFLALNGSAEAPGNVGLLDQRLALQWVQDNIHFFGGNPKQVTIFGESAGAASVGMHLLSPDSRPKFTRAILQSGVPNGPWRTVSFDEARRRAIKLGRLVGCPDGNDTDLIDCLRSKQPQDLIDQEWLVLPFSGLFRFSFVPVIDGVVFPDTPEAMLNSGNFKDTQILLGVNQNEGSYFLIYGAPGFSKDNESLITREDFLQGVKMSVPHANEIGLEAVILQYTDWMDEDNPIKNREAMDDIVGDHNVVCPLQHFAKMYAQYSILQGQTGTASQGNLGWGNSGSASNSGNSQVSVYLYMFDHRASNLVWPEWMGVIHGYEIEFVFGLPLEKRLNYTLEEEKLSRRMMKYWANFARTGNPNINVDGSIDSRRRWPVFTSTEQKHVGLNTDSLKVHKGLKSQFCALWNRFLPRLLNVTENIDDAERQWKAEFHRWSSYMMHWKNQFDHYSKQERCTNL
T2 sequence (P22303 32-614): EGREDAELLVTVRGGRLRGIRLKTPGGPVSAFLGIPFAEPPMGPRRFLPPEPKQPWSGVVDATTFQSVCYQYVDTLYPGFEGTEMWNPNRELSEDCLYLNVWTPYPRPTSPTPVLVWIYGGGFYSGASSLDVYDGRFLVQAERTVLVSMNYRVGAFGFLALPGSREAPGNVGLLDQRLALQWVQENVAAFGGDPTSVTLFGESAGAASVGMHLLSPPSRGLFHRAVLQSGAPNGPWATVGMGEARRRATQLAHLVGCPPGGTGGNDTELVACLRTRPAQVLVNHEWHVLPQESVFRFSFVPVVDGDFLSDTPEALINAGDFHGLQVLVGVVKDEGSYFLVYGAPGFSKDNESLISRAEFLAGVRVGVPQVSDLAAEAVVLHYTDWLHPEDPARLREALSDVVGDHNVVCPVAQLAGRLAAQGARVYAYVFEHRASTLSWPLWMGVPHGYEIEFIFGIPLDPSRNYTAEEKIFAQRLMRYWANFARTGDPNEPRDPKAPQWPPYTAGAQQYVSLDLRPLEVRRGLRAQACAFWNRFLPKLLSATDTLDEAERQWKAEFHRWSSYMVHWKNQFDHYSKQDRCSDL

Usually IC50 stands for the concentration that gives 50% inhibition. For `O=c1oc2cc(O)ccc2c2ccc(O)cc12` [Urolithin A, 3,8-dihydroxy-dibenzo-alpha-pyrone], the IC50 in assay [1] (setting [3]) turned out to be 0.1793 ± 0.0092 µg/mL; in assay [1] (setting [4]), 0.1793 ± 0.0092 µg/mL; in assay [2] it was 410.50 ± 38.52 µg/mL.

For `O=c1oc2cc(O)ccc2c2ccccc12` [Urolithin B, 3-hydroxy-dibenzo-alpha-pyrone], the half-maximal inhibitory concentration (IC50) in assay [1] (setting [3]) is 0.1430 ± 0.0057 µg/mL; in assay [1] (setting [4]), 0.1430 ± 0.0057 µg/mL; in assay [2], 272.67 ± 42.11 µg/mL.

For the origin of these results see patent US20200246308A1, “SYNERGISTIC COMBINATIONS OF UROLITHINS A AND B FOR IMPROVING COGNITIVE CAPACITY OR COGNITIVE FUNCTION” (Natreon, Inc., priority 2018, published 2020).
